Measurements as given in paper PMC5014630 (Molecular pharmaceutics, 2016).

Assays:
BCRP = molecular target: T1, BCRP (Homo sapiens, UniProt Q9UNQ0); assay: Permeability with BCRP inhibitor Ko143 in iPSC-derived BMEC; format: in vitro ADME; settings: 1 μM Ko143, 60 min pre-incubation; normalized to no inhibitor
T1 sequence (Q9UNQ0 1-655): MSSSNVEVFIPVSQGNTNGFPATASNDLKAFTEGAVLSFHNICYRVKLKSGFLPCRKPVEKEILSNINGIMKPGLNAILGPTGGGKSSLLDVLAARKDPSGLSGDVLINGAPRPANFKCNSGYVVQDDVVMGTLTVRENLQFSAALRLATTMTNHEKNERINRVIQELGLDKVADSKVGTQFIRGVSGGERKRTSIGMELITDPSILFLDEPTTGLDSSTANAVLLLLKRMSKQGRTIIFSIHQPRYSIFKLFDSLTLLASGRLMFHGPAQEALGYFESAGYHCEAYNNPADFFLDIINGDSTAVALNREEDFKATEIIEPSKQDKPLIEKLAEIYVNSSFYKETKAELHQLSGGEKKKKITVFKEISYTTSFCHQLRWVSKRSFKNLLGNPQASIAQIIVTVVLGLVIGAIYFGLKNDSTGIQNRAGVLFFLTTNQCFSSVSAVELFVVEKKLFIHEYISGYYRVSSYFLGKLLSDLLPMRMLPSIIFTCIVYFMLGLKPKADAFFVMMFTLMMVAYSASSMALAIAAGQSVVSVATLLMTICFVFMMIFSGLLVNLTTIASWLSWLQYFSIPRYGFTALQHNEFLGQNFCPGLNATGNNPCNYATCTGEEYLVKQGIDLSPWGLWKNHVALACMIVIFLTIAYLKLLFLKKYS

[1] = Permeability across iPSC-derived BMEC Transwell in vitro BBB model; settings: human
iPSC-derived BMECs [2] = assay: Directional; format: in vitro ADME, human; settings: normalized to AB permeability; Student's t-test
P-gp = P-gp (Homo sapiens, UniProt P08183); assay: Permeability with P-gp inhibitor PSC833 in iPSC-derived BMEC; format: in vitro ADME; settings: 1 μM PSC833, 60 min pre-incubation; normalized to no inhibitor
Chain of P-gp (P08183 whole entry): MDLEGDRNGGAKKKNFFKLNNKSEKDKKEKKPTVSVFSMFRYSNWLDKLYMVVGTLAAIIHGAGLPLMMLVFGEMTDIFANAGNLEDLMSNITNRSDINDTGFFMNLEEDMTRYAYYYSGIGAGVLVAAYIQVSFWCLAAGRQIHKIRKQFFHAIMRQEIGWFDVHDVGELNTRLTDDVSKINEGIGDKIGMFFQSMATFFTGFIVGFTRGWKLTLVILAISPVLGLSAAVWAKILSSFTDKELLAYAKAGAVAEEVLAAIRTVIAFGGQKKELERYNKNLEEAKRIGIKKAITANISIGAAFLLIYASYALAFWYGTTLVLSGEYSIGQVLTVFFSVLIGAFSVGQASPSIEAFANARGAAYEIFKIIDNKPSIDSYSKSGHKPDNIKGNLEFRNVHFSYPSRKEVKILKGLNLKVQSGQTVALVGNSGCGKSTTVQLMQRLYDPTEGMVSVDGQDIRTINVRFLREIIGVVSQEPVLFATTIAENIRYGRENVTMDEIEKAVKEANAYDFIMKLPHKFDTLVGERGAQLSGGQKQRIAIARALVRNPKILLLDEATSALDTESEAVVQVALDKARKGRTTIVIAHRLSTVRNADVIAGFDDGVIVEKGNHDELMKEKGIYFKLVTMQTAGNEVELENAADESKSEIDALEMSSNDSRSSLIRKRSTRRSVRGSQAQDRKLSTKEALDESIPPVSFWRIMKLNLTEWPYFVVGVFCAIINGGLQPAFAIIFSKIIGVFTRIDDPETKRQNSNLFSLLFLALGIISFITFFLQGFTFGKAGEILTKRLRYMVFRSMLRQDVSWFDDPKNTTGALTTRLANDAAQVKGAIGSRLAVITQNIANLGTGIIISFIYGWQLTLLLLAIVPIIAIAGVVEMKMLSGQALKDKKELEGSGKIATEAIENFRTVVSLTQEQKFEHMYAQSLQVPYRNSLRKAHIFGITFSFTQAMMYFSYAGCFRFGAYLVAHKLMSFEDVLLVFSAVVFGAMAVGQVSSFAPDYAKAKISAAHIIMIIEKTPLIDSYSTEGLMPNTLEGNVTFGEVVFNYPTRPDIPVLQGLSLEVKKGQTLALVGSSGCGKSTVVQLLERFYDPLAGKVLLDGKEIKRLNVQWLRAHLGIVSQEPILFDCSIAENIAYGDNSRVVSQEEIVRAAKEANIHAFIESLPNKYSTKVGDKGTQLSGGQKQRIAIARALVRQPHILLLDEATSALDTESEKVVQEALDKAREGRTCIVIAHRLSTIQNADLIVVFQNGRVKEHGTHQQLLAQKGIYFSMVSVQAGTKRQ

iPSC-derived BMECs [3] = assay: Temperature dependence of permeability; format: in vitro ADME, human; settings: normalized to 37°C condition; Student's t-test
MRPs = assay: Permeability with pan-MRP inhibitor MK571 in iPSC-derived BMEC; format: in vitro ADME, human; settings: 10 μM MK571, 60 min pre-incubation; normalized to no inhibitor
[4] = Experimental octanol/water LogD; format: physicochemical; settings: pH 7.4, octanol:buffer
iPSC-derived BMECs [5] = assay: Permeability across iPSC-derived BMEC Transwell in vitro BBB model; settings: for permeability (Pe) across iPSC-BMEC: Transwell, APC analogs 1 μM in PM20, 2 hours, mean±S.E., n≥3

Q: What does the source list for C[N+](C)(C)CCOP(=O)([O-])OCCCCCCCCCCCCCCCCCCc1ccc(I)cc1 [CLR1404, 18-(p-iodophenyl) octadecylphosphocholine]?
A: permeability change with Ko143 (BCRP inhibition) (BCRP): did not affect; Papp at 2 h, 1 μM [1]: 5.83 ×10⁻⁶ cm/s; polarized flux, basolateral-apical (BA) vs apical-basolateral (AB) (iPSC-derived BMECs [2]): no significant evidence of polarized efflux; permeability change with PSC833 (P-gp inhibition) (P-gp): did not affect; in vitro BBB permeability at 4°C compared to 37°C (iPSC-derived BMECs [3]): slight, but statistically insignificant, increase; permeability change with MK571 (MRP inhibition) (MRPs): did not affect

Q: With C[N+](C)(C)CCOP(=O)([O-])OCCCCCCCCCCCCCCCCCCc1ccc(C2=C3C=CC=[N+]3[B-](F)(F)n3cccc32)cc1 [CLR1501] as the compound, how does the “permeability change with Ko143 (BCRP inhibition)” value (BCRP) read?
A: The value was “selectively increased”.

Q: And the “fold increase of experimental LogD compared to parent CLR1404” value [4]?
A: Its value is “greater than 2 fold”.

Q: And the “permeability (Pe) across iPSC-BMEC” value (iPSC-derived BMECs [5])?
A: The value was 54±3.2 ×10^−5 cm/min.

Q: What about the “polarized flux, basolateral-apical (BA) vs apical-basolateral (AB)” value (iPSC-derived BMECs [2]) of the same compound?
A: The value was “significantly polarized flux in the brain-to-blood (BA) direction”.

Q: And the “in vitro BBB permeability at 4°C compared to 37°C” value (iPSC-derived BMECs [3])?
A: The value was “significantly higher”.

Q: And the “permeability change with MK571 (MRP inhibition)” value (MRPs)?
A: The value was “selectively increased”.

Q: Which “permeability change with Ko143 (BCRP inhibition)” value (BCRP) does the source give for CN1/C(=C/C=C2\CCCC(/C=C/C3=[N+](C)c4ccccc4C3(C)C)=C2c2ccc(CCCCCCCCCCCCCCCCCCOP(=O)([O-])OCC[N+](C)(C)C)cc2)C(C)(C)c2ccccc21.[Cl-] [CLR1502] here?
A: Its value is “A similar pattern was observed”.

Q: And the “fold increase of experimental LogD compared to parent CLR1404” value [4]?
A: Its value is “greater than 2 fold”.

Q: What about the “permeability (Pe) across iPSC-BMEC” value (iPSC-derived BMECs [5]) of the same compound?
A: Its value is 26±4.9 ×10^−5 cm/min.

Q: What about the “fold reduced permeability compared with CLR1501” value (iPSC-derived BMECs [5]; iPSC-derived BMEC Transwell, p<0.05) of the same compound?
A: Its value is 2 fold.

Q: What about the “polarized flux, basolateral-apical (BA) vs apical-basolateral (AB)” value (iPSC-derived BMECs [2]) of the same compound?
A: Its value is “significantly polarized flux in the brain-to-blood (BA) direction”.

Q: And the “in vitro BBB permeability at 4°C compared to 37°C” value (iPSC-derived BMECs [3])?
A: Its value is “significantly higher”.

Q: What about the “permeability change with MK571 (MRP inhibition)” value (MRPs) of the same compound?
A: Its value is “A similar pattern was observed”.
